EC50 data for four compounds are collected here from patent US10428041B2, “Pyridyl reverse sulfonamides for HBV treatment” (Novira Therapeutics, Inc., priority 2014, dated 2019).

A value given as a limit tells only on which side of the number the result lay.

This assay relates to HBV replication in HepG2-2.2.15 cells. Put plainly: Inhibition of HBV replication dot-blot assay. The class given is cell-based. As to conditions: Hepatitis B virus, 144 h, reduction in HBV DNA levels, six days. Here is the method: Compounds active in the HBV assembly assay are tested for their activity and toxicity in cellular assay. In the first anti-viral assay, the ability of compounds to inhibit HBV replication in an HBV-producing hepatoma cell line using the dot-blot method is evaluated.
(§1) Briefly, confluent monolayers of HepG2-2.2.15 cells are incubated with complete medium containing various concentrations of a test compound. Three days later, the culture medium is replaced with fresh medium containing the appropriately diluted test compound. Six days following the initial administration of the test compound, the cell culture supernatant is collected, and cell lysis is performed. The samples are applied onto Nylos membranes and DNA is immobilized to the membrane by UV cross-linking. After pre-hybridization, the HBV probe is added and the hybridization is performed overnight. The membranes are exposed to the KODAK films; antiviral activity is calculated from the reduction in HBV DNA levels (EC50). The EC50 for antiviral activity is calculated from the dose response curves of active compounds. Assay performance over time is monitored by the use of the standard positive control compounds ETV, BAY 41-4109, and HAP-1.
Selected compounds are tested for their activity and toxicity in cellular assay. In the first anti-viral assay, the ability of compounds to inhibit HBV replication in an HBV-producing hepatoma cell line using the dot-blot method is evaluated.
as §1, with “Confluent monolayers” for “Briefly, confluent monolayers”, “lysis was” for “lysis is”

What is called EC50 is the midpoint of the concentration-response curve. Lower therefore signals higher potency in that assay.

Regarding `O=C(Nc1ccc(F)c(Cl)c1)c1ccnc(NS(=O)(=O)CCc2ccccc2)c1` [Compound 21, N-(3-Chloro-4-fluorophenyl)-2-(2-phenylethylsulfonamido)isonicotinamide], the EC50 is below 10 µM.

Regarding `CS(=O)(=O)Nc1cc(C(=O)Nc2ccc(F)c(Cl)c2)ccn1` [Compound 35, N-(3-Chloro-4-fluorophenyl)-2-(methylsulfonamido)isonicotinamide], the EC50 was below 10 µM.

Compound `O=C(Nc1ccc(F)c(Cl)c1)c1ccnc(NS(=O)(=O)CCC2CC2)c1` [Compound 23, N-(3-Chloro-4-fluorophenyl)-2-(2-cyclopropylethylsulfonamido)isonicotinamide] gave a concentration for a half-maximal effect (EC50) below 10 µM.

With `O=C(Nc1ccc(F)c(Cl)c1)c1ccnc(NS(=O)(=O)CC2CC2)c1` [Compound 36, N-(3-Chloro-4-fluorophenyl)-2-(cyclopropylmethylsulfonamido)isonicotinamide], the concentration for a half-maximal effect (EC50) was below 10 µM.
